Read-outs that look alike come from different tables or passages of the source.
How the values were obtained:
[1] = target: T1, hERG (Homo sapiens, UniProt Q12809); experiment: hERG channel binding assay ([3H]astemizole displacement, HEK293 membranes); conditions: probe [3H]astemizole, at 10 μM, read-out: hERG binding (percent inhibition of [3H]astemizole binding)
T1 construct: expressed in transfected cells; host or cells: HEK293 cells, stably transfected; membranes used
Protocol: (§1) A hERG binding assay is a primary screening method used to evaluate potential activity of a compound against the hERG potassium channel. The affinity of a compound for the hERG channel is measured in vitro by examining displacement of tritiated-[^3H]astemizole, a high affinity hERG channel ligand. In this assay, membranes from HEK293 cells stably transfected with the human hERG channel cDNA are incubated with a range of concentrations of each test compound, vehicle (10% DMSO), or a positive control and [^3H]astemizole.
After a 1-hr incubation, the membranes are harvested onto GF/B filters, the filters dried and the radioactivity is measured. For each test compound, percent inhibition of [^3H]astemizole binding is calculated relative to control binding and IC50 values determined by linear regression. Each assay includes a positive control (i.e., Cisapride) that is tested in parallel with test compounds. At present, there is no gold standard preclinical test available to predict QT prolongation in humans. Therefore to assess potential cardiotoxicity, cardiovascular effects are evaluated preclinically in several different tests including the hERG channel binding assay.
hERG Channel Binding Assay
In the hERG channel binding assay, the ability of test compounds to displace ^3H-astemizole (a high affinity hERG channel ligand) is measured.
as §1, with “[^3H]astemizole. After a 1-hr incubation, the membranes are harvested onto GF/B filters, the filters dried and the radioactivity is measured.” for “[^3H]astemizole.”
For each test compound, percent inhibition of [^3H]astemizole binding is calculated relative to control binding and IC50 values determined by linear regression. Each assay includes a positive control (i.e., Cisapride) that is tested in parallel with test compounds.

[2] = target: T2, human A2a adenosine receptor (Homo sapiens, UniProt P29274); experiment: Ligand binding assay for adenosine A2a receptor ([3H]CGS21680, HEK293 plasma membrane)
T2 construct: purchased PerkinElmer RB-HA2a; host or cells: HEK293 cell plasma membranes
T2 sequence (P29274 whole entry): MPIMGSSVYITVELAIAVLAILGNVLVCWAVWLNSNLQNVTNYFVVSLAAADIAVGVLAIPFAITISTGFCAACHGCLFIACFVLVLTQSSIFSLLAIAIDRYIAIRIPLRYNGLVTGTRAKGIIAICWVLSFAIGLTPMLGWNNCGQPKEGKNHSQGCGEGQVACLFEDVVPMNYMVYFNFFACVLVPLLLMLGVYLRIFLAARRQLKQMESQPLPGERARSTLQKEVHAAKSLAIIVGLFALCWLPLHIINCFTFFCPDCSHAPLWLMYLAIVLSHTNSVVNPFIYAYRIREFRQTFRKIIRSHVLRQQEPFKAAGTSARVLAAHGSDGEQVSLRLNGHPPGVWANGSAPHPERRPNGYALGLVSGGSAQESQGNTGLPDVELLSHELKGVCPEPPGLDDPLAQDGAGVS

[3] = radioligand [3H]CGS21680, read-out: Ki A2a binding

T1 sequence (Q12809 whole entry): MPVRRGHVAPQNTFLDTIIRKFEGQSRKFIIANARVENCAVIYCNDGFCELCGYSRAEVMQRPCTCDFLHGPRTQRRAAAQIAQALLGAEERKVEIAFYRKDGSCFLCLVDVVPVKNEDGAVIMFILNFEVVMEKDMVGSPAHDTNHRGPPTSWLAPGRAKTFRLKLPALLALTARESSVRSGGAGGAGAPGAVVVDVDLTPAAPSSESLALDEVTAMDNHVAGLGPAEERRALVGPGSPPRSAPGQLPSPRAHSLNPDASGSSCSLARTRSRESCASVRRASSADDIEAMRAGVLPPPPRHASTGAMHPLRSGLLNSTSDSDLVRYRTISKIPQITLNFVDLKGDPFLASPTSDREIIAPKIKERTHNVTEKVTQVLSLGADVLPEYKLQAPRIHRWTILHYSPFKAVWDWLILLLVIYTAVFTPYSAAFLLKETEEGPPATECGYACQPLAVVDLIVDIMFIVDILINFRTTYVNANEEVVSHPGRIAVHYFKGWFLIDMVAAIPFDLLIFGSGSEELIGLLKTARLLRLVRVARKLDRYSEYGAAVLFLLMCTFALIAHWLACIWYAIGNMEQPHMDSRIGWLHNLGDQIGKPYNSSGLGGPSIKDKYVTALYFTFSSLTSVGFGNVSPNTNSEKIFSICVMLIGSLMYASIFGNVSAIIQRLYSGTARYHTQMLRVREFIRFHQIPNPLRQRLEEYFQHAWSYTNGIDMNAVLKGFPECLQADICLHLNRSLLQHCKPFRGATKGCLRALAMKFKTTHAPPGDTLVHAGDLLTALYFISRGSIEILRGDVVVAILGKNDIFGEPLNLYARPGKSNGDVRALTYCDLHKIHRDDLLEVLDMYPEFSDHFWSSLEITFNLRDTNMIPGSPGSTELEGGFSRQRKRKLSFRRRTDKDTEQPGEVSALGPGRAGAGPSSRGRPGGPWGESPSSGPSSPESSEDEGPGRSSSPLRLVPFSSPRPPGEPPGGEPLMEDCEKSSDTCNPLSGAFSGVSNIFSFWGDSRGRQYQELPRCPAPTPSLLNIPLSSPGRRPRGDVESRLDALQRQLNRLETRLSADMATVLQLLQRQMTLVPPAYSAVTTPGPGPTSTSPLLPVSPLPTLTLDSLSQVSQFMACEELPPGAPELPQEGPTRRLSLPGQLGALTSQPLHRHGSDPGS

SMILES	Ki [2, 3]	Ki [2]	inhibition at 1 h, 10 µM [1]
Nc1nc(-c2ccccc2)c2c(n1)-c1cc(CNCc3ccccn3)ccc1C2=O [Compound 2]		10.2 nM	34.5%
Nc1nc(-c2ccccc2)c2c(n1)-c1cc(CN3CCC(=O)CC3)ccc1C2=O [Compound 3]	9.4 nM		13.8%
Nc1nc(-c2ccccc2)c2c(n1)-c1cc(CN3CCC(O)C3)ccc1C2=O (stereo not drawn) [Compound 4]	7.9 nM		27.8%

Continued, in another order:

Ki [2, 3]	Ki [2]	SMILES	inhibition at 1 h, 10 µM [1]
6.69 nM		Nc1nc(-c2ccccc2)c2c(n1)-c1cc(CN3CCCC3)ccc1C2=O [Compound 1]	1.4%
5.8 nM		Nc1nc(-c2ccccc2)c2c(n1)-c1cc(CN3CCC(O)CC3)ccc1C2=O [Compound 5]	26.2%
5.39 nM		Nc1nc(-c2ccccc2)c2c(n1)-c1cc(CN3CCOCC3)ccc1C2=O [Compound 6]	-12.5%

From patent US20110312956A1, “ARYLINDENOPYRIMIDINES WITH REDUCED hERG CHANNEL BINDING” (priority 2010, published 2011)
